This is an account of results in patent US20070154580A1, “Antiviral Morinda Citrifolia L. Based Formulations and Methods of Administration” (priority 2005, published 2007).

Read-outs that look alike come from different tables or passages of the source.

The target in test [1] is T1, Protease, CTSG (Cathepsin G) (Homo sapiens, UniProt P08311).
T1 sequence (P08311 21-255): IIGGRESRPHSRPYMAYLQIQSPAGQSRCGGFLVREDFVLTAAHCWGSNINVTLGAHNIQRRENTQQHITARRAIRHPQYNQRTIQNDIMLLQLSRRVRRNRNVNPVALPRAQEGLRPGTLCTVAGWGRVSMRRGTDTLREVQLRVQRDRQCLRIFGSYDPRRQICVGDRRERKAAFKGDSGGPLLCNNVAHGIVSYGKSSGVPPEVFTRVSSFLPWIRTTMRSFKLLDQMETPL
To be noted: reference compound, historical value; cited from earlier work.

Test [2] has as its target T1, Protease, CTSG (Cathepsin G). The experiment in a line: Protease, CTSG (Cathepsin G) inhibition assay. Type of test: biochemical. As to conditions: reference compound, concurrent run; read-out: Concurrent MIC IC50.

By IC50 is commonly meant the point on the concentration scale where inhibition reaches its midpoint. For `CC(C)C[C@H](NC(=O)[C@@H](NC(=O)N[C@@H](Cc1ccccc1)C(=O)O)[C@@H]1CCN=C(N)N1)C(=O)N[C@H](C=O)Cc1ccccc1` [Chumostatin], the figures for the IC50 in test [1] and in test [2] were 2.1 µM and 1.22 µM, respectively.
